Test results published in paper PMC7822874, “Chemoprotective antimalarials identified through quantitative high-throughput screening of Plasmodium blood and liver stage parasites” (Scientific Reports, 2021).
“And” between values parts separate entries of the source, which are not always exact repeats. Equal values may be shown once. Read-outs that look alike come from different tables or passages of the source.

Key:
[1] = test system: luciferase-expressing P. berghei liver stage parasites in HepG2 cells; test: Inhibition of liver-stage development assay (ILSDA), Method 2 (WRAIR, 96-well); format: cell-based, Plasmodium berghei; conditions: Method 2; Decrease = decreasing P. berghei viability with dose, Increase = increasing signal, Inactive = no dose response
[2] = test system: Plasmodium falciparum Dd2 asexual blood stage parasites; test: microbe, parasite or virus in culture; parameters: species or system Plasmodium falciparum Dd2 in human erythrocytes; single determination (one 11-point concentration-response curve); conditions: Plasmodium falciparum, DD2, Erythrocyte, 72 h; read-out: AC50
[3] = test system: P. berghei-ANKA-GFP-LucCON liver stage parasites in HepG2-A16-CD81EGFP cells; test: P. berghei liver stage Pb-Luc assay, Method 1 (UCSD, 1536-well); format: cell-based, Plasmodium berghei; conditions: Method 1
[4] = test system: T1, Plasmodium falciparum Dd2-attB-ScDHODH (transgenic line expressing yeast DHODH), asexual blood stages; test: organism not typed; parameters: replicate k of 3 (each line is one of three independent assays; the three lines of one compound and parasite line follow each other); conditions: 72 h, n = 1; for AC50: read-out: Individual replicates / Log AC50 (converted)
T1 construct: Dd2-attB-ScDHODH, the transgenic line that expresses yeast DHODH
Summary of the method: (§1)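 The transgenic line overexpresses fumarate-dependent yeast DHODH, bypassing parasite mETC and ubiquinone-dependent parasite DHODH. A subset of compounds was run in three independent assays on both lines, and line differences were tested by two-sided Student's t-test.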

[5] = test system: T2, Plasmodium falciparum Dd2-attB (parental line), asexual blood stages; test: microbe, parasite or virus in culture; parameters: species or system P. falciparum Dd2-attB in human erythrocytes; SYBR Green-I proliferation assay, Dd2-attB parental line, asexual blood stages; conditions: 72 h; for AC50: Plasmodium falciparum, DD2, Erythrocyte, read-out: Calculated / Average Log AC50 (M), mean of replicates, 72 h (converted)
T2 construct: Dd2-attB, the isogenic parental line

[6] = test system: T2, Plasmodium falciparum Dd2-attB (parental line), asexual blood stages; test: microbe, parasite or virus in culture; parameters: replicate k of 3 (each line is one of three independent assays; the three lines of one compound and parasite line follow each other); conditions: n = 1; for Individual replicates / Log AC50 (M): 72 h; for AC50: Plasmodium falciparum, DD2, 72 h, read-out: Individual replicates / Log AC50 (converted)
Summary of the method: as §1

O=C1C(c2ccc(C(F)(F)F)cc2)=C(Nc2ccc(Cl)cc2)c2ccccc21 [NCGC00107304-01]
Max Resp (signal direction of the dose response) [1]: Inactive
AC50 [2]: 1.5 µM
Max Resp (signal direction of the dose response) ([3]; Decrease = decreasing P. berghei viability with dose, Increase = increasing signal, Inactive = no dose response): Decrease
AC50 ([3]; Hill fit, 50% of maximum activity response, read-out: AC50): 0.282 µM
Log AC50 (M) ([3]; log10 of molar AC50 from Hill fit): -6.550 M
AC50 ([3]; Plasmodium berghei, Hill fit, 50% of maximum activity response, read-out: AC50): 0.158 µM
AC50 ([3]; Plasmodium berghei, log10 of molar AC50 from Hill fit, read-out: Log AC50 (converted)): 0.158 µM
Individual replicates / Log AC50 (M) [4]: -5.0986 Log AC50 (M) and -5.1486 Log AC50 (M) and -5.3986 Log AC50 (M)
AC50 [5]: 7.1e-07 M
Individual replicates / Log AC50 (M) [6]: -6.0986 Log AC50 (M)
AC50 [6]: 0.564 µM

CN(C)c1cnc2c(O)ccc([S+](=O)([O-])Nc3ccccc3F)c2c1 [NCGC00189501-01]
Individual replicates / Log AC50 (M) [4]: -4.9986 Log AC50 (M) and -4.7986 Log AC50 (M)
AC50 [4]: 14.2 µM
AC50 [5]: 9.29e-06 M
Individual replicates / Log AC50 (M) [6]: -5.0986 Log AC50 (M)
AC50 [6]: 12.6 µM

Oc1ccc(CCc2ccccc2F)c2cccnc12 [NCGC00184905-01]
AC50 [4]: 15.9 µM
AC50 [5]: 1.31e-05 M
Individual replicates / Log AC50 (M) [6]: -5.1986 Log AC50 (M) and -4.7486 Log AC50 (M)

Cc1nn2c(c1-c1ccccc1Oc1ccccc1)N(Cc1ccccc1)CCC2 [NCGC00499717-01]
Individual replicates / Log AC50 (M) [4]: -4.7986 Log AC50 (M)
AC50 [4]: 15.9 µM
AC50 [5]: 1.42e-05 M
Individual replicates / Log AC50 (M) [6]: -4.9986 Log AC50 (M) and -4.7486 Log AC50 (M)
AC50 [6]: 15.9 µM

CCOC(=O)c1ccc(O)c2ncc(N3CCNCC3)cc12 [NCGC00241046-01]
Individual replicates / Log AC50 (M) [4]: -5.3486 Log AC50 (M)
AC50 [4]: 5.03 µM
AC50 [5]: 5.86e-06 M
Individual replicates / Log AC50 (M) [6]: -5.2986 Log AC50 (M) and -5.0986 Log AC50 (M)
AC50 [6]: 5.03 µM

NC1CCN(c2cnc3c(O)ccc(C(=O)O)c3c2)CC1 [NCGC00241035-01]
AC50 [4]: 17.8 µM
AC50 [5]: 1.42e-05 M
Individual replicates / Log AC50 (M) [6]: -4.7986 Log AC50 (M) and -4.9986 Log AC50 (M)
AC50 [6]: 17.8 µM

NC(=O)c1ccc(O)c2ncccc12 [NCGC00184888-01]
AC50 [4]: 20 µM
AC50 [5]: 1.59e-05 M
AC50 [6]: 14.2 µM

Cc1ccccc1Nc1c(-c2ccccc2O)nc2sccn12 [NCGC00105919-03]
Individual replicates / Log AC50 (M) [4]: -4.8486 Log AC50 (M) and -5.0486 Log AC50 (M)
AC50 [4]: 8.94 µM
AC50 [5]: 1.08e-05 M
Individual replicates / Log AC50 (M) [6]: -4.8986 Log AC50 (M) and -5.0986 Log AC50 (M)
AC50 [6]: 12.6 µM

O=[S+]([O-])(Nc1ccc(O)c2ncccc12)c1ccccc1F [NCGC00184887-02]
Individual replicates / Log AC50 (M) [4]: -4.9486 Log AC50 (M) and -4.8486 Log AC50 (M)
AC50 [5]: 1e-05 M
Individual replicates / Log AC50 (M) [6]: -4.8986 Log AC50 (M) and -5.0486 Log AC50 (M) (2×)

CCOC(=O)c1ccc(O)c2ncc(NCC3CCCN(CCc4ccccc4)C3)cc12 (stereo not shown) [NCGC00241755-01]
Individual replicates / Log AC50 (M) [4]: -5.0986 Log AC50 (M)
AC50 [4]: 6.33 µM
AC50 [5]: 8.28e-06 M
Individual replicates / Log AC50 (M) [6]: -5.1486 Log AC50 (M) and -4.8986 Log AC50 (M)
AC50 [6]: 6.33 µM

O=C(NCCCCN1CCOCC1)c1cccc(-c2cc(O)c3ncccc3c2)c1 [NCGC00249385-01]
Individual replicates / Log AC50 (M) [4]: -5.2486 Log AC50 (M) and -5.1486 Log AC50 (M) and -4.8486 Log AC50 (M)
AC50 [5]: 7.97e-06 M
Individual replicates / Log AC50 (M) [6]: -5.1986 Log AC50 (M) and -4.8986 Log AC50 (M)
AC50 [6]: 6.33 µM

CC(C)OC(=O)c1ccnc2cc(C(OCCN3CCCCC3)c3cccc(NC(=O)/C=C/CN(C)C)c3)sc12 (stereo not shown) [NCGC00493268-01]
Individual replicates / Log AC50 (M) [4]: -5.4486 Log AC50 (M) and -5.1486 Log AC50 (M)
AC50 [5]: 3.3e-06 M
Individual replicates / Log AC50 (M) [6]: -5.5986 Log AC50 (M) and -5.5486 Log AC50 (M)
AC50 [6]: 5.03 µM

Oc1ccc(/C=C/c2c(F)cccc2F)c2cccnc12 [NCGC00184904-01]
Individual replicates / Log AC50 (M) [4]: -4.7486 Log AC50 (M) and -4.7986 Log AC50 (M)
AC50 [5]: 1e-05 M
Individual replicates / Log AC50 (M) [6]: -5.0986 Log AC50 (M) and -5.0486 Log AC50 (M)
AC50 [6]: 14.2 µM

O=C(O)c1ccnc(-n2ncc(C(OCCN3CCCCC3)c3ccccc3Cl)c2-c2cccc(-c3ccccc3)c2)c1 (stereo not shown) [NCGC00481640-01]
Individual replicates / Log AC50 (M) [4]: -4.7986 Log AC50 (M) and -4.8486 Log AC50 (M)
Calculated / Average Log AC50 (M) ([5]; mean of replicates, inhibitor, Calculated / Average Log AC50 (M)): -4.9486 M
Individual replicates / Log AC50 (M) [6]: -5.0486 Log AC50 (M) and -4.8986 Log AC50 (M) (2×)
